From ChEMBL document CHEMBL6074624, “FDA-approved small molecule kinase inhibitors for cancer treatment (2001-2015): Medical indication, structural optimization, and binding mode Part I” (Bioorg Med Chem, 2024)
pIC50: −log10 of the molar value. In brackets after ≈: the same amount, converted by molar mass.

Tests used:
[1] = target: Dual specificity mitogen-activated protein kinase kinase 1 (Homo sapiens, UniProt Q02750); test: Inhibition of MEK1 (unknown origin) phosphorylation by [gamma-33P]-ATP assay
Sequence of Dual specificity mitogen-activated protein kinase kinase 1 (Q02750 whole entry): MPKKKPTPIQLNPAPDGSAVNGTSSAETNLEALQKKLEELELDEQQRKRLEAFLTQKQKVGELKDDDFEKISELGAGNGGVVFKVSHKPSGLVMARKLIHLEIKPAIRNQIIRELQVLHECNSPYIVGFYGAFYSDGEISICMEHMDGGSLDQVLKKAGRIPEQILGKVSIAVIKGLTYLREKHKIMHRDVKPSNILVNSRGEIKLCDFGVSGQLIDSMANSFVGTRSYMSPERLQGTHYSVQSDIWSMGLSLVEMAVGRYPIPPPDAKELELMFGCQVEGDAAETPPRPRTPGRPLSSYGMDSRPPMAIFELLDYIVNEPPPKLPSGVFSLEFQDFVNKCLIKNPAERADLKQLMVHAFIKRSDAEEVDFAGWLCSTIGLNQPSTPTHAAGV

[2] = Antiproliferative activity against human MDA-MB-231T cells assessed as reduction in cell viability; assay type: functional, cell-based
[3] = Antitumor activity against human MDA-MB-231T cells xenografted in mouse assessed as tumor growth inhibition at 1 mg/kg, po relative to control; assay type: functional; settings: read-out: TGI
[4] = Antitumor activity against human MDA-MB-231T cells xenografted in mouse assessed as tumor growth inhibition at 3 mg/kg, po relative to control; assay type: functional; settings: read-out: TGI
[5] = Oral bioavailability in human at 5 mg/kg; assay type: ADME, organism-based; settings: in vivo
[6] = tested on: KARPAS-299; test: Antitumor activity against ALK positive human KARPAS-299 cells xenografted in RNU nude rat assessed as tumor growth inhibition at 6.25 mg/kg, po administered for 2 weeks relative to control; assay type: functional; settings: KARPAS-299, 336 h, read-out: TGI
[7] = tested on: KARPAS-299; test: Antitumor activity against ALK positive human KARPAS-299 cells xenografted in RNU nude rat assessed as tumor growth inhibition at 12.5 mg/kg, po administered for 2 weeks relative to control; assay type: functional; settings: KARPAS-299, 336 h, read-out: TGI
[8] = tested on: KARPAS-299; test: Antitumor activity against ALK positive human KARPAS-299 cells xenografted in RNU nude rat assessed as tumor growth inhibition at 25 mg/kg, po administered for 2 weeks relative to control; assay type: functional; settings: KARPAS-299, 336 h, read-out: TGI
[9] = tested on: NCI-H2228; test: Antitumor activity against ALK positive human NCI-H2228 cells xenografted in RNU nude rat assessed as tumor growth inhibition at 5 mg/kg, po administered for 2 weeks relative to control; assay type: functional; settings: NCI-H2228, 336 h, read-out: TGI
[10] = tested on: NCI-H2228; test: Antitumor activity against ALK positive human NCI-H2228 cells xenografted in RNU nude rat assessed as tumor growth inhibition at 10 mg/kg, po administered for 2 weeks relative to control; assay type: functional; settings: NCI-H2228, 336 h, read-out: TGI
[11] = tested on: ACHN; test: Antiproliferative activity against human ACHN cells assessed as reduction in cell viability measured after 48 hrs by SRB assay; assay type: functional, cell-based
[12] = tested on: HT-29; test: Antiproliferative activity against human HT-29 cells assessed as reduction in cell viability after 72 hrs by MTS assay; assay type: functional, cell-based; settings: HT-29, 72 h
[13] = Solubility of compound in PBS at pH 7.4; assay type: physicochemical
[14] = Permeability of compound in human Caco-2 cells […]; assay type: ADME, cell-based; settings: read-out: permeability
[15] = AUC in human; assay type: ADME
[16] = Oral bioavailability in human; assay type: ADME, organism-based; settings: in vivo
[17] = tested on: A549; test: Antitumor activity against human A549 cells harboring KRAS G12S mutant xenografted in athymic nude mouse assessed as tumor growth inhibition at 5 mg/kg, po administered once daily for 21 days relative to control; assay type: functional; settings: A549, 504 h, time 21 day, read-out: TGI
[18] = tested on: A549; test: Antitumor activity against human A549 cells harboring KRAS G12S mutant xenografted in athymic nude mouse assessed as tumor growth inhibition at […], po administered once daily for 21 days relative to control; assay type: functional; settings: A549, 504 h, dose 2.5 mg/kg, time 21 day, read-out: TGI
[19] = tested on: A549; test: Antitumor activity against human A549 cells harboring KRAS G12S mutant xenografted in athymic nude mouse assessed as tumor growth inhibition at 0.5 mg/kg, po administered once daily for 21 days relative to control; assay type: functional; settings: A549, 504 h, time 21 day, read-out: TGI
[20] = tested on: A549; test: Antitumor activity against human A549 cells harboring KRAS G12S mutant xenografted in athymic nude mouse assessed as tumor growth inhibition at 0.1 mg/kg, po administered once daily for 21 days relative to control; assay type: functional; settings: A549, 504 h, time 21 day, read-out: TGI
[21] = tested on: Caco-2; test: Cytotoxicity against human Caco-2 cells assessed as reduction in cell viability; assay type: functional, cell-based
[22] = Clearance in Sprague-Dawley rat at 5 mg/kg, po; assay type: ADME, organism-based; settings: in vivo
[23] = Intrinsic clearance in rat; assay type: ADME
[24] = tested on: SK-MEL-28; test: Cytotoxicity against human SK-MEL-28 cells assessed as reduction in cell viability after 24 hrs by MTT assay; assay type: functional, cell-based; settings: SK-MEL-28, 24 h
[25] = tested on: Ramos; test: cells; settings: Homo sapiens
[26] = tested on: Jurkat; test: cells; settings: Homo sapiens
[27] = Toxicity in ICR mouse assessed as maximal tolerated dose measured for 7 days; settings: in vivo, time 7 day
[28] = tested on: MDA-MB-231; test: Antitumor activity against human MDA-MB-231 cells xenografted in athymic nude mouse assessed as tumor growth inhibition at 20 mg/kg, po administered once daily for 11 days relative to control; assay type: functional; settings: MDA-MB-231, 264 h, time 11 day, read-out: TGI
[29] = tested on: KARPAS-299; test: cells; settings: Homo sapiens, KARPAS-299, 24 h

## O=C(c1ccc(F)c(F)c1Nc1ccc(I)cc1F)N1CC(O)([C@@H]2CCCCN2)C1 [COBIMETINIB]
[1]
  pIC50: 8.18
[2]
  pIC50: 9.70
[3]
  inhibition in vivo at 1 mg/kg: 60%
[4]
  inhibition in vivo at 3 mg/kg: 93%
[5]
  bioavailability: 77%

## Cc1cc(Nc2ncc(Cl)c(Nc3ccccc3S(=O)(=O)C(C)C)n2)c(OC(C)C)cc1C1CCNCC1 [CERITINIB]
[6]
  inhibition in vivo at 6.25 mg/kg: 74%
[7]
  inhibition in vivo at 12.5 mg/kg: 30%
[8]
  inhibition in vivo at 25 mg/kg: 33%
[9]
  inhibition in vivo at 5 mg/kg: 67%
[10]
  inhibition in vivo at 10 mg/kg: 2%

## CC(=O)Nc1cccc(-n2c(=O)n(C3CC3)c(=O)c3c(Nc4ccc(I)cc4F)n(C)c(=O)c(C)c32)c1 [TRAMETINIB]
[11]
  pIC50: 8.01
[12]
  pIC50: 9.24
[13]
  solubility: 5.3 µM (≈ 3.26 µg/mL)
[14]
  Papp: 26 ×10⁻⁶ cm/s
[15]
  AUC: 88.3 µM·h
[16]
  bioavailability: 30%
[17]
  inhibition in vivo at 5 mg/kg: 92%
[18]
  inhibition in vivo at […]: 87%
[19]
  inhibition in vivo at 0.5 mg/kg: 62%
[20]
  inhibition in vivo at 0.1 mg/kg: 58%

## O=C(NOCC1CC1)c1ccc(F)c(F)c1Nc1ccc(I)cc1Cl [CI-1040]
[21]
  pIC50: 7.46

## O=C(c1ccc(F)c(F)c1Nc1ccc(I)cc1F)N1CC(O)C1
[22]
  CL: 8.324 mL/min/kg

## CC(C)(C)c1nc(-c2cccc(NS(=O)(=O)c3c(F)cccc3F)c2F)c(-c2ccnc(N)n2)s1 [DABRAFENIB]
[23]
  clearance: 19 mL/min/kg
[24]
  pIC50: 8.52

## C=CC(=O)N1CCC[C@@H](n2nc(-c3ccc(Oc4ccccc4)cc3)c3c(N)ncnc32)C1 [IBRUTINIB]
[25]
  pIC50: 7.40
[26]
  pIC50: 6.33

## O=C(NOC[C@H](O)CO)c1ccc(F)c(F)c1Nc1ccc(I)cc1F [MIRDAMETINIB]
[27]
  MTD at 168 h: 25 mg/kg

## CCc1cc2c(cc1N1CCC(N3CCOCC3)CC1)C(C)(C)c1[nH]c3cc(C#N)ccc3c1C2=O [ALECTINIB]
[28]
  inhibition in vivo at 20 mg/kg: 119%
[29]
  pIC50: 7.89
